According to patent US8952024B2, “Herbicidal pyrimidone derivatives” (E I du Pont de Nemours and Company, priority 2009, dated 2015):

Assays:
Test in all cases: Test B pre-/postemergence plant response
Assay type in all cases: in vivo
[1] = system: cocklebur (Xanthium strumarium)
In short: (§1)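 Visual injury, 0–100 scale (100 = complete control), rated against controls after 13 to 15 days in greenhouse. Pre-emergence: seeds in loam/sand soil, treated at planting. Post-emergence: 1- to 4-leaf plants (2 to 18 cm) in peat/vermiculite medium. Compounds formulated in non-phytotoxic solvent with surfactant.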

[2] = system: large crabgrass (Digitaria sanguinalis)
In short: as §1

[3] = system: Surinam grass (Brachiaria decumbens)
In short: as §1

[4] = system: woolly cupgrass (Eriochloa villosa)
In short: as §1

[5] = system: blackgrass (Alopecurus myosuroides)
In short: as §1

[6] = system: wheat (Triticum aestivum)
In short: as §1

[7] = system: bermudagrass (Cynodon dactylon)
In short: as §1

[8] = system: downy bromegrass (Bromus tectorum)
In short: as §1

[9] = system: morningglory (Ipomoea coccinea)
In short: as §1

wild oat (Avena fatua) = system: wild oat (Avena fatua)
In short: as §1

[10] = system: ragweed (common ragweed, Ambrosia elatior)
In short: as §1

kochia (Kochia scoparia) = system: kochia (Kochia scoparia)
In short: as §1

[11] = system: Italian ryegrass (Lolium multiflorum)
In short: as §1

[12] = 31 g ai/ha, postemergence, scale 0 to 100, 0 is no effect, 100 is complete control
[13] = 62 g ai/ha, postemergence, 0 is no effect, 100 is complete control, 13 to 15 days
[14] = Postemergence, 125 g ai/ha, visual rating after 13 to 15 days, scale 0 (no effect) to 100 (complete control)
[15] = Postemergence, 250 g ai/ha, scale 0 to 100 (0 no effect, 100 complete control)

Cc1ccccc1-c1ncc(C(=O)C2=C(O)CCCC2=O)c(=O)n1-c1ccccc1 [Compound 82]
Plant response rating, Cocklebur [1, 12]: 85
Cocklebur plant response rating (0 to 100 scale) [1, 13]: 90
Plant response rating, Cocklebur [1, 14]: 95
Plant response rating, Cocklebur [1, 15]: 100
Plant response rating, Crabgrass, Large [2, 12]: 70
Crabgrass, Large plant response rating (0 to 100 scale) [2, 13]: 75
Plant response rating, Crabgrass, Large [2, 14]: 80
Plant response rating, Crabgrass, Large [2, 15]: 90
Plant response rating, Surinam Grass [3, 12]: 65
Surinam Grass plant response rating (0 to 100 scale) [3, 13]: 65
Plant response rating, Surinam Grass [3, 14]: 75
Plant response rating, Surinam Grass [3, 15]: 80
Plant response rating, Cupgrass, Woolly [4, 12]: 55
Cupgrass, Woolly plant response rating (0 to 100 scale) [4, 13]: 55
Plant response rating, Cupgrass, Woolly [4, 14]: 65
Plant response rating, Cupgrass, Woolly [4, 15]: 75
Plant response rating, Blackgrass [5, 12]: 0
Blackgrass plant response rating (0 to 100 scale) [5, 13]: 0
Plant response rating, Blackgrass [5, 14]: 5
Plant response rating, Blackgrass [5, 15]: 15
Plant response rating, Wheat [6, 12]: 0
Wheat plant response rating (0 to 100 scale) [6, 13]: 0
Plant response rating, Wheat [6, 14]: 0
Plant response rating, Wheat [6, 15]: 5
Plant response rating, Bermudagrass [7, 12]: 80
Bermudagrass plant response rating (0 to 100 scale) [7, 13]: 85
Plant response rating, Bermudagrass [7, 14]: 85
Plant response rating, Bermudagrass [7, 15]: 95
Plant response rating, Bromegrass, Downy [8, 12]: 0
Bromegrass, Downy plant response rating (0 to 100 scale) [8, 13]: 0
Plant response rating, Bromegrass, Downy [8, 14]: 5
Plant response rating, Bromegrass, Downy [8, 15]: 30
Plant response rating, Morningglory [9, 12]: 65
Morningglory plant response rating (0 to 100 scale) [9, 13]: 100
Plant response rating, Morningglory [9, 14]: 100
Plant response rating, Morningglory [9, 15]: 100
Plant response rating, Oat, Wild (wild oat (Avena fatua); [12]): 0
Oat, Wild plant response rating (0 to 100 scale) (wild oat (Avena fatua); [13]): 0
Plant response rating, Oat, Wild (wild oat (Avena fatua); [14]): 5
Plant response rating, Oat, Wild (wild oat (Avena fatua); [15]): 10
Plant response rating, Ragweed [10, 12]: 75
Ragweed plant response rating (0 to 100 scale) [10, 13]: 80
Plant response rating, Ragweed [10, 14]: 95
Plant response rating, Ragweed [10, 15]: 95
Plant response rating, Kochia (kochia (Kochia scoparia); [12]): 10
Kochia plant response rating (0 to 100 scale) (kochia (Kochia scoparia); [13]): 60
Plant response rating, Kochia (kochia (Kochia scoparia); [14]): 65
Plant response rating, Kochia (kochia (Kochia scoparia); [15]): 75
Plant response rating, Ryegrass, Italian [11, 12]: 0
Ryegrass, Italian plant response rating (0 to 100 scale) [11, 13]: 0
Plant response rating, Ryegrass, Italian [11, 14]: 5
Plant response rating, Ryegrass, Italian [11, 15]: 10
